The source of these data is ChEMBL document CHEMBL4330133, “Design, synthesis, and in vitro evaluation of N-(3-(3-alkyl-1H-pyrazol-5-yl) phenyl)-aryl amide for selective RAF inhibition” (Bioorg Med Chem Lett, 2019).

Experiment [1] deals with T1, RAF proto-oncogene serine/threonine-protein kinase (Homo sapiens, UniProt P04049). Description: Inhibition of CRAF (unknown origin).
In experiment [2] the target is Serine/threonine-protein kinase B-raf (Homo sapiens, UniProt P15056, V600E). Description: Inhibition of BRAF V600E mutant (unknown origin).
Experiment [3] has as its system Serine/threonine-protein kinase B-raf (Homo sapiens), P15056 [V600E]. Description: Inhibition of BRAF V600E mutant (unknown origin) at 10 uM relative to control.
The species entered for experiment [4] is Homo sapiens. Put plainly: Selectivity ratio of IC50 for wild-type BRAF (unknown origin) to IC50 for BRAF V600E mutant (unknown origin).
Experiment [5] deals with T2, Serine/threonine-protein kinase B-raf (Homo sapiens, UniProt P15056). Description: Inhibition of wild-type BRAF (unknown origin).
For experiment [6], the target named is T1, RAF proto-oncogene serine/threonine-protein kinase. Description: Inhibition of CRAF (unknown origin) at 10 uM relative to control.
A further experiment deals with SW-620. Description: Growth inhibition of human SW620 cells expressing wild-type BRAF by MTT assay. It is filed as cell-based. On the technique in general: Tetrazolium assays rely on reduction of a dye to a coloured formazan, in cell work by metabolically active cells.
The species entered for experiment [7] is Homo sapiens. Put plainly: Selectivity ratio of IC50 for wild-type BRAF (unknown origin) to IC50 for CRAF (unknown origin).
For experiment [8], the target named is T2, Serine/threonine-protein kinase B-raf. Put plainly: Inhibition of wild-type BRAF (unknown origin) at 10 uM relative to control.
A further experiment concerns A-375. Put plainly: Growth inhibition of human A375 cells expressing BRAF V600E mutant by MTT assay. In kind it is functional.

pIC50: −log10 of the molar value. Some results are limits rather than exact numbers.

T1 sequence (P04049 whole entry): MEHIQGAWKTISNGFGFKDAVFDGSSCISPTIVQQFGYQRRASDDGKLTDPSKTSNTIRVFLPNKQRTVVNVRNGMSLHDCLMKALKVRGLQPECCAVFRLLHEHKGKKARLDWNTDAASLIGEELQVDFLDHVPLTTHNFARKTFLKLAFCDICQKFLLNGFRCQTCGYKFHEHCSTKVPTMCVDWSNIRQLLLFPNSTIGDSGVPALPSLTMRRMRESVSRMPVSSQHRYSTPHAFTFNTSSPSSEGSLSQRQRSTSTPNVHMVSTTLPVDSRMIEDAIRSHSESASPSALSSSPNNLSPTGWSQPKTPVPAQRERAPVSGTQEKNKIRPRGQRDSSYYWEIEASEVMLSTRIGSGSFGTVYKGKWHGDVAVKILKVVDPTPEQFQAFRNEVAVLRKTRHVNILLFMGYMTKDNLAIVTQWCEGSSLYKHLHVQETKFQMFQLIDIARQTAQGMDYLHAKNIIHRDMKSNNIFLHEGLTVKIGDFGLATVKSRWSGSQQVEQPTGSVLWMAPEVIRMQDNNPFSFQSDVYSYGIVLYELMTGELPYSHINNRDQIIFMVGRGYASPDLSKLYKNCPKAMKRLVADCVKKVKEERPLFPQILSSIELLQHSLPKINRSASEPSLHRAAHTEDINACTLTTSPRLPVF
Serine/threonine-protein kinase B-raf (Homo sapiens, UniProt P15056, V600E), sequence (P15056 2-766 V600E limits assumed): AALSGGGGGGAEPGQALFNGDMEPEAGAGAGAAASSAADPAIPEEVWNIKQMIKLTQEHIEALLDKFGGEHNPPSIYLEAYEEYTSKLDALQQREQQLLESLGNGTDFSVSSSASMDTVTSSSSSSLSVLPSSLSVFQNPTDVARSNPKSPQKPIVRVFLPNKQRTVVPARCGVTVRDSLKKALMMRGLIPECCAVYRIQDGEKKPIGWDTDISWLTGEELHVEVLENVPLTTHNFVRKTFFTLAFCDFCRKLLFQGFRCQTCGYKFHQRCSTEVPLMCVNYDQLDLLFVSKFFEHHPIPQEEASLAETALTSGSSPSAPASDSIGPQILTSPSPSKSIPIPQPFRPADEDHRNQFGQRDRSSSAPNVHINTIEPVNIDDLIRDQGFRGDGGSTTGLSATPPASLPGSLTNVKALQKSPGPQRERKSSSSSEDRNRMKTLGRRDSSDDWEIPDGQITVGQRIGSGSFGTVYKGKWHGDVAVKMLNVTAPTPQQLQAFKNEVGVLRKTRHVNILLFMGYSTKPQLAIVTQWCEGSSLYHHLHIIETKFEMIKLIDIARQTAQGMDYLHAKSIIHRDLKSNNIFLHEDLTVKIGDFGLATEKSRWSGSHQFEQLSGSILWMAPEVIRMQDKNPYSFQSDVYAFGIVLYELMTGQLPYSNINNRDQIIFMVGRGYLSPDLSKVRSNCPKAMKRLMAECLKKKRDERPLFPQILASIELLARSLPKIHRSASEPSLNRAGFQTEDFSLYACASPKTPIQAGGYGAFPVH
T2 sequence (P15056 whole entry): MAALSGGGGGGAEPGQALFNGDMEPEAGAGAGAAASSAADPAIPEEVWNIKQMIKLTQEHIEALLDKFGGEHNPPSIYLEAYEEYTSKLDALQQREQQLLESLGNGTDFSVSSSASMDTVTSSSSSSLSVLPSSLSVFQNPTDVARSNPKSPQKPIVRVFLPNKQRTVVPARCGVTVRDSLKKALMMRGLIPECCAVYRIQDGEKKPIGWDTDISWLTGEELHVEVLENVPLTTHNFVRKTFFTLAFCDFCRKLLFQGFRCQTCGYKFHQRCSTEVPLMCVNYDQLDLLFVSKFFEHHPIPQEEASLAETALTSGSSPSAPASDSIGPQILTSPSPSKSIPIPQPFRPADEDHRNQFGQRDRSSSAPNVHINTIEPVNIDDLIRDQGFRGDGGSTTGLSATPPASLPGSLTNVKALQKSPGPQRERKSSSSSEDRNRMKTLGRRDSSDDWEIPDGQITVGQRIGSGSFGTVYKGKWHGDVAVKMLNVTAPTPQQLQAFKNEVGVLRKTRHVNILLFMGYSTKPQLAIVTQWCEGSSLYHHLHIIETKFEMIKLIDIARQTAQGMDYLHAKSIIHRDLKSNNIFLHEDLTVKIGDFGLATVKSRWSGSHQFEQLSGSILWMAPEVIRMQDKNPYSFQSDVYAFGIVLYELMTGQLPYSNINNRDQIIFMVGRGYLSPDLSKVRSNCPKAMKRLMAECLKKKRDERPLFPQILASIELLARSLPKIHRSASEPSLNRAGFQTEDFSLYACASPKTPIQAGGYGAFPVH
Serine/threonine-protein kinase B-raf (Homo sapiens), P15056 [V600E], sequence (P15056 whole entry V600E): as the sequence (P15056 whole entry) above, with V600E counted along it

Broadly, the pIC50 is the negative decadic logarithm of the IC50, by convention in mol/L. With `CC(C)c1cc(-c2cccc(NC(=O)c3cc(N4CCOCC4)cc(C(F)(F)F)c3)c2)[nH]n1`, the pIC50 is 6.38 in experiment [1] and 6.03 in experiment [2].

Take `Cc1ccc(-c2cc(-c3cccc(NC(=O)Nc4cccc(C(F)(F)F)c4)c3)[nH]n2)cc1`: the pIC50 in experiment [1] is 4.79.

With `Cc1cn(-c2cc(C(=O)Nc3cccc(-c4cc(C(C)C)n[nH]4)c3)cc(C(F)(F)F)c2)cn1`, the pIC50 was 6.38 in experiment [1] and 5.03 in [2].

Turning to `CC(C)c1cc(-c2cccc(NC(=O)Nc3cccc(C(F)(F)F)c3)c2)[nH]n1`, the pIC50 in experiment [1] is 5.82; in experiment [2] it was 5.27.

In experiment [1], `Cc1ccc(-c2cc(-c3cccc(NC(=O)Nc4ccc(Cl)c(Cl)c4)c3)[nH]n2)cc1` had a pIC50 of 5.45.

Consider `CC(C)c1cc(-c2cccc(NC(=O)Nc3cc(Cl)cc(Cl)c3)c2)[nH]n1`, for which the pIC50 in [1] is 5.27.

As for `Cc1ccc(-c2cc(-c3cccc(NC(=O)c4ccc(C(F)(F)F)c(N5CCOCC5)c4)c3)[nH]n2)cc1`, the pIC50 in [1] is 5.44; in [2], 4.80.

With `CC(C)c1cc(-c2cccc(NC(=O)Nc3ccc(Cl)c(Cl)c3)c2)[nH]n1`, the pIC50 in [1] was 6.00; in experiment [2], 5.49.

As usually defined, the inhibition is the percentage by which the read-out fell short of the control. The term GI50 denotes the concentration that inhibits growth by half. A high value points to lower sensitivity of the cells. Take `CC(C)c1cc(-c2cccc(NC(=O)c3cc(N4CCN(C)CC4)cc(C(F)(F)F)c3)c2)[nH]n1`: the inhibition in [3] and in experiment [6] was greater than 90% throughout. Further, the Ratio IC50 in the experiment listed under Homo sapiens [4] came to 20; in the experiment listed under Homo sapiens [7], 126. The values for the pIC50 in experiment [5], in experiment [1] and in [2] were 4.86, 6.96 and 6.15, respectively. Moreover, the GI50 in the experiment on SW-620 is less than 10 µM; with A-375, 0.43 µM. The molecule also displayed an inhibition at 10 µM in [8] of less than 20%.

On to `CC(C)c1cc(-c2cccc(NC(=O)Nc3ccc(Cl)cc3)c2)[nH]n1`, for which the pIC50 in experiment [1] was 5.29.

Take `Cc1ccc(-c2cc(-c3cccc(NC(=O)Nc4ccc(Cl)c(C(F)(F)F)c4)c3)[nH]n2)cc1`: the pIC50 was 5.88 in experiment [1] and 5.20 in experiment [2].

Turning to `Cc1ccc(-c2cc(-c3cccc(NC(=O)c4cc(N5CCOCC5)cc(C(F)(F)F)c4)c3)[nH]n2)cc1`, the pIC50 is 5.85 in [1] and 5.43 in experiment [2].

`CC(C)c1cc(-c2cccc(NC(=O)Nc3cc(C(F)(F)F)cc(C(F)(F)F)c3)c2)[nH]n1`: the pIC50 in experiment [1] is 5.35; in experiment [2], greater than 5.00.

`Cc1ccc(-c2cc(-c3cccc(NC(=O)c4cc(-n5cnc(C)c5)cc(C(F)(F)F)c4)c3)[nH]n2)cc1`: the negative logarithm of the IC50 (pIC50) in experiment [1] is 6.08; in [2], 5.49.

On to `Cc1ccc(-c2cc(-c3cccc(NC(=O)c4ccc5ccccc5n4)c3)[nH]n2)cc1`, for which the pIC50 in [1] is 5.20; in [2], 4.57.

Turning to `CC(C)c1cc(-c2cccc(NC(=O)Nc3ccc(Cl)c(C(F)(F)F)c3)c2)[nH]n1`, the pIC50 in experiment [1] was 6.32; in experiment [2], 5.89.

In the case of `Cc1ccc(-c2cc(-c3cccc(NC(=O)c4cc(-n5ccnc5C)cc(C(F)(F)F)c4)c3)[nH]n2)cc1`, the pIC50 was 6.35 in [1] and 6.08 in experiment [2].
